Results on 25 compounds are retold here after patent US11718622B2, “Heterocyclic adenosine receptor antagonists” (Exelixis, Inc., priority 2020, dated 2023).

Experiment [1] addresses Adenosine A2a (ADORA2A) receptor (Homo sapiens (Human), UniProt P29274). As to the kind of experiment: ADORA2A Receptor Binding Assay. The following applies: radioligand binding, membrane stock. As to the method: ADORA1A and ADORA2A Receptor Binding Assay
2 μL of each compound (test compounds, high control compound, low control compound) was transferred into individual wells of an assay plate. Also to each individual well, 98 μL of Adenosine A1a membrane stock (for ADORA1A Receptor Binding Assay) or Adenosine A2a membrane stock (for ADORA2A Receptor Binding Assay) was dispensed, followed by 100 μL of radio-labeled ligand. Plates were then sealed, and incubated at room temperature for 1 hour (for ADORA1A Receptor Binding Assay) or 2 hours (for ADORA2A Receptor Binding Assay). Unifilter-96 GF/C filter plates were pre-soaked with 50 μL of 0.3% PEI per well for at least 30 min at room temperature. When binding assays were completed, reaction mixtures were filtered through GF/C plates using a Perkin Elmer Filtermate Harvester, and then each plate was washed 4× with cold wash buffer. Filter plates were then dried for 1 hour at 50° C. After drying, the bottom of the filter plate wells was sealed using Perkin Elmer Unifilter-96 backing seal tape. 50 μL of Perkin Elmer Microscint 20 cocktail was then added, and the top of the filter plate was then sealed using Perkin Elmer TopSeal-A sealing film. ^3H trapped on the filter was counted using a Perkin Elmer MicroBeta2 Reader. Data analysis was performed using GraphPad Prism 5 software, and the “Inhibition [% Control]” was calculated using the following equation: % Inh=(1−Background subtracted Assay value/Background subtracted HC value)*100.

The target of experiment [2] is Adenosine A2B (ADORA2B) receptor (Homo sapiens (Human), UniProt P29275). As to the kind of experiment: ADORA2B Receptor Binding Assay. The following applies: radioligand binding, membrane stock. On the procedure:
ADORA2B Receptor Binding Assay
100 μL of Adenosine A2B membrane stock was dispensed into individual wells of an assay plate. 1 μL of each compound (test compounds, high control compound, low control compound) was then transferred into individual wells, followed by 100 μL of radio-labeled ligand. Plates were then sealed, and incubated at room temperature for 1 hour. Unifilter-96 GF/C filter plates were pre-soaked with 50 μL of 0.5% BSA per well for at least 30 min at room temperature. When binding assays were completed, reaction mixtures were filtered through GF/C plates using a Perkin Elmer Filtermate Harvester, and then each plate was washed 4× with cold wash buffer. Filter plates were then dried for 1 hour at 50° C. After drying, the bottom of the filter plate wells was sealed using Perkin Elmer Unifilter-96 backing seal tape. 50 μL of Perkin Elmer Microscint 20 cocktail was then added, and the top of the filter plate was then sealed using Perkin Elmer TopSeal-A sealing film. ^3H trapped on the filter was counted using a Perkin Elmer MicroBeta2 Reader. Data analysis was performed using GraphPad Prism 5 software, and the “Inhibition[% Control]” was calculated using the following equation: % Inh=(1−Background subtracted Assay value/Background subtracted HC value)*100.

Each structure is given as a SMILES string. Some results are limits rather than exact numbers.

Adenosine A2B (ADORA2B) receptor, sequence (P29275 whole entry): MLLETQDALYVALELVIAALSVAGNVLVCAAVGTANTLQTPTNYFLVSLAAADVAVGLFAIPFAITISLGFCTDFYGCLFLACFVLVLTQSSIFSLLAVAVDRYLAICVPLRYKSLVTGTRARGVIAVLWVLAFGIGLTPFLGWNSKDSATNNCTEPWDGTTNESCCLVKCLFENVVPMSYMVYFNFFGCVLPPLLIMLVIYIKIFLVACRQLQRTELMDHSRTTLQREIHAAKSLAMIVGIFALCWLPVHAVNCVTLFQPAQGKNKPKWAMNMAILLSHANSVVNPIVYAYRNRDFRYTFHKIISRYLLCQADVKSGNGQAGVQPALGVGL
Adenosine A2a (ADORA2A) receptor, sequence (P29274 whole entry): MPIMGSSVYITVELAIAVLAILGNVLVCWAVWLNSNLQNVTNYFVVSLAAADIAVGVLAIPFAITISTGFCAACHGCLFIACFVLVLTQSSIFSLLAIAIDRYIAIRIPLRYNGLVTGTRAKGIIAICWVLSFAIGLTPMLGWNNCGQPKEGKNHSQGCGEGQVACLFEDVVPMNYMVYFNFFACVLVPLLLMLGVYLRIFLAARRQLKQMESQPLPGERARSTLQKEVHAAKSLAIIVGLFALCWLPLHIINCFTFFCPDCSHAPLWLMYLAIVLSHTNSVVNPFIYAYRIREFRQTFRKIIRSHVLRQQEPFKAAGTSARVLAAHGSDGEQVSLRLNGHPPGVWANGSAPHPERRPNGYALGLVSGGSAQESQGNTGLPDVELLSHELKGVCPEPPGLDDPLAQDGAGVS

`Cc1cncc(-c2nc(N)c(Cl)c3nc(C)nn23)c1` [Compound 57, 8-chloro-2-methyl-5-(5-methylpyridin-3-yl)-[1,2,4]triazolo[1,5-c]pyrimidin-7-amine]: the IC50 in experiment [1] and in experiment [2] was more than 1000 nM in each case.

`CC(C)c1nc2cc(NC(=O)C3CC3)nc(-c3ccco3)n2n1` [Compound 58, N-[5-(furan-2-yl)-2-propan-2-yl-[1,2,4]triazolo[1,5-c]pyrimidin-7-yl]cyclopropanecarboxamide]: the IC50 in experiment [1] and in experiment [2] was less than 10 nM each time.

As to `CC(=O)Nc1cc2nc(C(F)(F)F)nn2c(-c2ccco2)n1` [Compound 59, N-[5-(furan-2-yl)-2-(trifluoromethyl)-[1,2,4]triazolo[1,5-c]pyrimidin-7-yl]acetamide], the IC50 in experiment [1] is less than 10 nM; in experiment [2], 10 to 100 nM.

`Cc1nc2cc(NC(=O)C3COC3)nc(-c3ccc(C)o3)n2n1` [Compound 60, N-[2-methyl-5-(5-methylfuran-2-yl)-[1,2,4]triazolo[1,5-c]pyrimidin-7-yl]oxetane-3-carboxamide]: the IC50 in experiment [1] was less than 10 nM; in experiment [2] it was 10 to 100 nM.

For `CC(=O)Nc1cc2nc(C3CC3)nn2c(-c2ccc(C)o2)n1` [Compound 61, N-[2-cyclopropyl-5-(5-methylfuran-2-yl)-[1,2,4]triazolo[1,5-c]pyrimidin-7-yl]acetamide], the figures for the IC50 in experiment [1] and in experiment [2] were less than 10 nM and 10 to 100 nM, respectively.

On to `Cc1ccc(-c2nc(NC(=O)C3CC3)cc3nc(C4CC4)nn23)o1` [Compound 62, N-[2-cyclopropyl-5-(5-methylfuran-2-yl)-[1,2,4]triazolo[1,5-c]pyrimidin-7-yl]cyclopropanecarboxamide], for which the IC50 in experiment [1] was less than 10 nM; in experiment [2], 10 to 100 nM.

In the case of `CC(=O)Nc1cc2nc(C3CCC3)nn2c(-c2ccc(C)o2)n1` [Compound 63, N-[2-cyclobutyl-5-(5-methylfuran-2-yl)-[1,2,4]triazolo[1,5-c]pyrimidin-7-yl]acetamide], the figures for the IC50 in experiment [1] and in experiment [2] were less than 10 nM and 10 to 100 nM, respectively.

For `Cc1ccc(-c2nc(NC(=O)C3CC3)cc3nc(C4CCC4)nn23)o1` [Compound 64, N-[2-cyclobutyl-5-(5-methylfuran-2-yl)-[1,2,4]triazolo[1,5-c]pyrimidin-7-yl]cyclopropanecarboxamide], the IC50 is less than 10 nM in experiment [1] and 10 to 100 nM in experiment [2].

For `CC(=O)Nc1cc2nc(C3CCCC3)nn2c(-c2ccc(C)o2)n1` [Compound 65, N-[2-cyclopentyl-5-(5-methylfuran-2-yl)-[1,2,4]triazolo[1,5-c]pyrimidin-7-yl]acetamide], the IC50 in experiment [1] was less than 10 nM; in experiment [2], 10 to 100 nM.

Consider `Cc1ccc(-c2nc(NC(=O)C3CC3)cc3nc(C4CCCC4)nn23)o1` [Compound 66, N-[2-cyclopentyl-5-(5-methylfuran-2-yl)-[1,2,4]triazolo[1,5-c]pyrimidin-7-yl]cyclopropanecarboxamide], for which the IC50 in experiment [1] was less than 10 nM; in experiment [2], 10 to 100 nM.

On to `Cc1ccc(-c2nc(NC(=O)C3CC3)cc3nc(-c4ccco4)nn23)o1` [Compound 67, N-[2-(furan-2-yl)-5-(5-methylfuran-2-yl)-[1,2,4]triazolo[1,5-c]pyrimidin-7-yl]cyclopropanecarboxamide], for which the values for the IC50 in experiment [1] and in experiment [2] were less than 10 nM and 10 to 100 nM, respectively.

For `O=C(Nc1cc2nc(C(F)(F)F)nn2c(-c2ccco2)n1)C1CC1` [Compound 68, N-[5-(furan-2-yl)-2-(trifluoromethyl)-[1,2,4]triazolo[1,5-c]pyrimidin-7-yl]cyclopropanecarboxamide], the IC50 in experiment [1] and in experiment [2] was less than 10 nM each time.

As to `Cc1nc2cc(NC(=O)C3CC3)nc(-c3ccc(C(F)(F)F)o3)n2n1` [Compound 69, N-[2-methyl-5-[5-(trifluoromethyl)furan-2-yl]-[1,2,4]triazolo[1,5-c]pyrimidin-7-yl]cyclopropanecarboxamide], the IC50 was less than 10 nM in experiment [1] and 10 to 100 nM in experiment [2].

On to `Cc1nc2cc(NC(=O)C3CC3)nc(-c3cnn(C)c3)n2n1` [Compound 70, N-[2-methyl-5-(1-methylpyrazol-4-yl)-[1,2,4]triazolo[1,5-c]pyrimidin-7-yl]cyclopropanecarboxamide], for which the IC50 in experiment [1] was 100 to 1000 nM; in experiment [2] it was more than 1000 nM.

For `CC(=O)Nc1cc2nc(C)nn2c(-c2cnn(C)c2)n1` [Compound 71, N-[2-methyl-5-(1-methylpyrazol-4-yl)-[1,2,4]triazolo[1,5-c]pyrimidin-7-yl]acetamide], the IC50 in experiment [1] and in experiment [2] was more than 1000 nM throughout.

Take `CC(=O)Nc1cc2nc(C)nn2c(-c2ccoc2)n1` [Compound 72, N-[5-(furan-3-yl)-2-methyl-[1,2,4]triazolo[1,5-c]pyrimidin-7-yl]acetamide]: the IC50 is 100 to 1000 nM in experiment [1] and more than 1000 nM in experiment [2].

Regarding `Cc1nc2cc(NC(=O)C3CC3)nc(-c3ccoc3)n2n1` [Compound 73, N-[5-(furan-3-yl)-2-methyl-[1,2,4]triazolo[1,5-c]pyrimidin-7-yl]cyclopropanecarboxamide], the values for the IC50 in experiment [1] and in experiment [2] were 10 to 100 nM and 100 to 1000 nM, respectively.

On to `Cc1nc2c(Cl)c(N)nc(-c3ccccn3)n2n1` [Compound 74, 8-chloro-2-methyl-5-pyridin-2-yl-[1,2,4]triazolo[1,5-c]pyrimidin-7-amine], for which the results for the IC50 in experiment [1] and in experiment [2] were 10 to 100 nM and more than 1000 nM, respectively.

For `Cc1cc2c(nc(-c3ccc(C)o3)n3nc(C(C)C)nc23)[nH]1` [Compound 75, 11-methyl-7-(5-methylfuran-2-yl)-4-propan-2-yl-3,5,6,8,10-pentazatricyclo[7.3.0.0^2,6]dodeca-1(9),2,4,7,11-pentaene], the IC50 is less than 10 nM in experiment [1] and 10 to 100 nM in experiment [2].

Regarding `Cc1cccc(-c2nc(N)c(Cl)c3nc(C)nn23)n1` [Compound 76, 8-chloro-2-methyl-5-(6-methylpyridin-2-yl)-[1,2,4]triazolo[1,5-c]pyrimidin-7-amine], the IC50 in experiment [1] was 10 to 100 nM; in experiment [2], more than 1000 nM.

Turning to `Cc1nc2c(Cl)c(N)nc(-c3ccc(Cl)cc3)n2n1` [Compound 77, 8-chloro-5-(4-chlorophenyl)-2-methyl-[1,2,4]triazolo[1,5-c]pyrimidin-7-amine], the IC50 in experiment [1] and in experiment [2] was 10 to 100 nM throughout.

Consider `Cc1nc2c(Cl)c(N)nc(-c3cccc(Cl)c3)n2n1` [Compound 78, 8-chloro-5-(3-chlorophenyl)-2-methyl-[1,2,4]triazolo[1,5-c]pyrimidin-7-amine], for which the concentration for half-maximal inhibition (IC50) in experiment [1] was less than 10 nM; in experiment [2], 10 to 100 nM.

Consider `Cc1nc2c(Cl)c(N)nc(-c3ccncc3)n2n1` [Compound 79, 8-chloro-2-methyl-5-pyridin-4-yl-[1,2,4]triazolo[1,5-c]pyrimidin-7-amine], for which the IC50 in experiment [1] was in the range of 10 to 100 nM; in experiment [2], 100 to 1000 nM.

With `Cc1nc2c(Cl)c(N)nc(-c3ccc(F)cc3)n2n1` [Compound 80, 8-chloro-5-(4-fluorophenyl)-2-methyl-[1,2,4]triazolo[1,5-c]pyrimidin-7-amine], the IC50 in experiment [1] lay in the range of 10 to 100 nM; in experiment [2] it was 100 to 1000 nM.

Consider `Cc1cc2c(nc(-c3ccco3)n3nc(C(C)C)nc23)[nH]1` [Compound 81, 7-(furan-2-yl)-11-methyl-4-propan-2-yl-3,5,6,8,10-pentazatricyclo[7.3.0.0^2,6]dodeca-1(9),2,4,7,11-pentaene], for which the IC50 is less than 10 nM in experiment [1] and 10 to 100 nM in experiment [2].

Broadly, the IC50 is the concentration at which inhibition is half-maximal. A lower IC50 goes with greater potency.
